Like-named read-outs stand apart in the source and are kept apart here.
Assays:
FGFR1 = biological target: T1, FGFR1 (Homo sapiens, UniProt P11362); test: Isolated enzyme FRET-based Z-Lyte kinase inhibition assay; assay type: biochemical; conditions: means from 3 independent experiments; read-out: Isolate Enzyme Inhibition IC50, FGFR1
T1 construct: purchased Invitrogen
Method: (§1) FGFR1-4 and the Z-Lyte Kinase Assay Kit were purchased from Invitrogen. The concentration gradients from 5.1×10^−11 to 1.0×10^−6 mol/L were used for all the test compounds. The experiments were performed according to the instructions of the manufacturer.
(§2) FGFR1-4 isolated enzyme activity was determined using the FRET-based Z-Lyte kinase inhibition assay. The data are the means from 3 independent experiments.

FGFR2 = biological target: T2, FGFR2 (Homo sapiens, UniProt P21802); test: as above; assay type: biochemical; conditions: means from 3 independent experiments; read-out: Isolate Enzyme Inhibition IC50, FGFR2
T2 construct: purchased Invitrogen
Method: as §1, §2

FGFR3 = biological target: T3, FGFR3 (Homo sapiens, UniProt P22607); test: as above; assay type: biochemical; conditions: means from 3 independent experiments; read-out: Isolate Enzyme Inhibition IC50, FGFR3
T3 construct: purchased Invitrogen
Method: as §1, §2

[1] = tested on: FGFR1 in H520 cells (phospho-ERK1/2); test: Drug washout Western blot assay, H520 cells; assay type: cell-based; conditions: H520; 30 min exposure, 100 nM, with and without washout
[2] = tested on: FGFR3 in SW780 cells (phospho-ERK1/2); test: Drug washout Western blot assay, SW780 cells; assay type: cell-based; conditions: SW780; 30 min exposure, 100 nM, with and without washout
SUM52 cells = test: Oxic and anoxic anti-proliferative activity of the prodrugs; conditions: for Hypoxic Cytotoxicity Ratio (HCR), SUM52: ratio of oxic and anoxic IC50
[3] = read-out: Cellular Anti-proliferative IC50, SUM52, Anoxic, 4 hours of anoxia, remainder of assay oxic
[4] = read-out: Cellular Anti-proliferative IC50, SUM52, Oxic, oxic conditions

T2 sequence (P21802 22-821): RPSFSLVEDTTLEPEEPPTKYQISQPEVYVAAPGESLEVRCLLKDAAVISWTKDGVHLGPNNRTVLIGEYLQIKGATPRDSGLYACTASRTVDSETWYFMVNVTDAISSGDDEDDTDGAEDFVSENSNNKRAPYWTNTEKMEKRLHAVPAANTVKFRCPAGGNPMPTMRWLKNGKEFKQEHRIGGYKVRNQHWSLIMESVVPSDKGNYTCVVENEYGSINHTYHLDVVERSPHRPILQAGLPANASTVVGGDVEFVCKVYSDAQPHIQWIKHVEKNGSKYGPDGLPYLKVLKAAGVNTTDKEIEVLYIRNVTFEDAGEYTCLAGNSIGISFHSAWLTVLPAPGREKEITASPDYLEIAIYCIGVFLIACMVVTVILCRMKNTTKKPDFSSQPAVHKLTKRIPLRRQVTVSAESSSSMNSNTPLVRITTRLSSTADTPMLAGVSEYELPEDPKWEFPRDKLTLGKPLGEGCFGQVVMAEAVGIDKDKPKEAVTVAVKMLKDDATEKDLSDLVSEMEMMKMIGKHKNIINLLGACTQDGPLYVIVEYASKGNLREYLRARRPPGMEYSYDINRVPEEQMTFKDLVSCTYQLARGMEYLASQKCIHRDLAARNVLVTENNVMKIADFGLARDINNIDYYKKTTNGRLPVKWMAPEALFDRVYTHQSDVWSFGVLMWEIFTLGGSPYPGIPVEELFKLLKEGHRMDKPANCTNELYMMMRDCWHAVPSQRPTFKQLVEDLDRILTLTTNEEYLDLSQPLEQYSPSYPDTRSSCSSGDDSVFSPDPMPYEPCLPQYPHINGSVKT
T3 sequence (P22607 23-806): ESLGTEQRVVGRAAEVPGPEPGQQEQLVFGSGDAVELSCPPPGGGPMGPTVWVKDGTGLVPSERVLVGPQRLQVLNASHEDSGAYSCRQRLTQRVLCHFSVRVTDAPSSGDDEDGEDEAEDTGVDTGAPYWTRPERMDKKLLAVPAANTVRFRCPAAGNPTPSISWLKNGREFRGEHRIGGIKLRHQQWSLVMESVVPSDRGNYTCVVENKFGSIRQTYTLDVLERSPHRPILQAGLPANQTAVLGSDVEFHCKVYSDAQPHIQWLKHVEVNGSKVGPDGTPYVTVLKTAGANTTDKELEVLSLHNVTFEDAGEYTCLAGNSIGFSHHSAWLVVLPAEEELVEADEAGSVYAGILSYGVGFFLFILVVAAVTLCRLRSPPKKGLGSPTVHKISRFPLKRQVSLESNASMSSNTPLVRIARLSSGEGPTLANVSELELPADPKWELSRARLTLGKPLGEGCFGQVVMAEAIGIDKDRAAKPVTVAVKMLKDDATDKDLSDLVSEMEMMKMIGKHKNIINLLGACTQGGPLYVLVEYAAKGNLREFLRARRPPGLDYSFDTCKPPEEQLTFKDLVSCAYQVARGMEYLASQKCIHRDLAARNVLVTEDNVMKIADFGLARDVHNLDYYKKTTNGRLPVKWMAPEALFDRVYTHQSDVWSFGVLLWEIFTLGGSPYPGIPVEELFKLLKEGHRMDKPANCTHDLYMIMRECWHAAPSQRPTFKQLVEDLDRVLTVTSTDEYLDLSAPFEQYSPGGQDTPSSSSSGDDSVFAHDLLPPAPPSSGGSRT
T1 sequence (P11362 22-822): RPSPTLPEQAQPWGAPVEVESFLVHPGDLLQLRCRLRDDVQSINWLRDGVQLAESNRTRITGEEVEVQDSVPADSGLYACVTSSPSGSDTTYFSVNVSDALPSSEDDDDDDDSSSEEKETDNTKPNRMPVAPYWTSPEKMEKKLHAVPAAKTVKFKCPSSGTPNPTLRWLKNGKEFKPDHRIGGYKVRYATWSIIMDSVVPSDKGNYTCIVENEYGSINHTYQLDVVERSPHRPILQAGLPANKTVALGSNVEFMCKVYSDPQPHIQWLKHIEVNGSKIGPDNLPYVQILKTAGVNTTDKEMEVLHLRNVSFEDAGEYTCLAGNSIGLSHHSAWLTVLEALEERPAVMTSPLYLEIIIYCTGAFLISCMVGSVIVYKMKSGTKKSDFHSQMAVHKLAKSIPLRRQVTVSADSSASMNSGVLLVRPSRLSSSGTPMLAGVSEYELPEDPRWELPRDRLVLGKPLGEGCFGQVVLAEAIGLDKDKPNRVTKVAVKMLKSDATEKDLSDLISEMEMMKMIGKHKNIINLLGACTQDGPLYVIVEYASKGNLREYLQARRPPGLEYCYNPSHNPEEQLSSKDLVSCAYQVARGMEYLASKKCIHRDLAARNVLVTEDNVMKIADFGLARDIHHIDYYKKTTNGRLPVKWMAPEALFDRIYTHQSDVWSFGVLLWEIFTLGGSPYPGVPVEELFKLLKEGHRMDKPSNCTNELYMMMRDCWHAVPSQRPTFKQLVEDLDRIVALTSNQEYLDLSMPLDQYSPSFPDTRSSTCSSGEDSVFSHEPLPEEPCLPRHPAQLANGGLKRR

Structure (SMILES) | IC50 (FGFR1) [nM] | IC50 (FGFR2) [nM] | IC50 (FGFR3) [nM] | reversible or irreversible inhibition of FGFR1 in cells [1] | reversible or irreversible inhibition of FGFR3 in cells [2] | Hypoxic Cytotoxicity Ratio (HCR), SUM52 (SUM52 cells) | IC50 (SUM52 cells; [3]) [nM] | IC50 (SUM52 cells; [4]) [nM]
CNc1ncc2c(n1)N(C1CCN(C(=O)/C=C/CN3CCCCC3)CC1)C(=O)N(c1c(Cl)c(OC)cc(OC)c1Cl)C2 [Compound 124, (E)-3-(2,6-dichloro-3,5-dimethoxyphenyl)-7-(methylamino)-1-(1-(4-(piperidin-1-yl)but-2-enoyl)piperidin-4-yl)-3,4-dihydropyrimido[4,5-d]pyrimidin-2(1H)-one] | 0.8 | 1.9 | 12 |  |  |  |  | 
CNc1ncc2c(n1)N(Cc1cccc(NC(=O)/C=C/CN(C)C)c1)C(=O)N(c1c(Cl)c(OC)cc(OC)c1Cl)C2 [Compound 127, (E)-N-(3-((3-(2,6-dichloro-3,5-dimethoxyphenyl)-7-(methylamino)-2-oxo-3,4-dihydropyrimido[4,5-d]pyrimidin-1(2H)-yl)methyl)phenyl)-4-(dimethylamino)but-2-enamide] | 1 | 2.7 | 35 |  |  |  |  | 
CNc1ncc2cc(-c3c(Cl)c(OC)cc(OC)c3Cl)c(=O)n(C3CCN(C(=O)/C=C/CN(C)C)CC3)c2n1 [Compound 132, (E)-6-(2,6-dichloro-3,5-dimethoxyphenyl)-8-(1-(4-(dimethylamino)but-2-enoyl)piperidin-4-yl)-2-(methylamino)pyrido[2,3-d]pyrimidin-7(8H)-one] | 0.7 | 1 | 4.9 |  |  |  |  | 
COc1cc(OC)c(Cl)c(-c2cc3cnc(NC4CCOC4)nc3n(C3CCN(C(=O)/C=C/CN(C)C)CC3)c2=O)c1Cl (centres unmarked) [Compound 134, (E)-6-(2,6-dichloro-3,5-dimethoxyphenyl)-8-(1-(4-(dimethylamino)but-2-enoyl)piperidin-4-yl)-2-((tetrahydrofuran-3-yl)amino)pyrido[2,3-d]pyrimidin-7(8H)-one] | 1.1 | 1.6 | 11 |  |  |  |  | 
COc1cc(OC)c(Cl)c(-c2cc3cnc(NC4CCOCC4)nc3n(C3CCN(C(=O)/C=C/CN(C)C)CC3)c2=O)c1Cl [Compound 135, (E)-6-(2,6-dichloro-3,5-dimethoxyphenyl)-8-(1-(4-(dimethylamino)but-2-enoyl)piperidin-4-yl)-2-((tetrahydro-2H-pyran-4-yl)amino)pyrido[2,3-d]pyrimidin-7(8H)-one] | 0.9 | 1.2 | 6.3 |  |  |  |  | 
COc1cc(OC)c(Cl)c(-c2cc3cnc(NC4CCCCC4)nc3n(C3CCN(C(=O)/C=C/CN(C)C)CC3)c2=O)c1Cl [Compound 136, (E)-2-(cyclohexylamino)-6-(2,6-dichloro-3,5-dimethoxyphenyl)-8-(1-(4-(dimethylamino)but-2-enoyl)piperidin-4-yl)pyrido[2,3-d]pyrimidin-7(8H)-one] | 1.1 | 1.3 | 6.7 |  |  |  |  | 
COc1cc(OC)c(Cl)c(-c2cc3cnc(Nc4ccccc4)nc3n(C3CCN(C(=O)/C=C/CN(C)C)CC3)c2=O)c1Cl [Compound 138, (E)-6-(2,6-dichloro-3,5-dimethoxyphenyl)-8-(1-(4-(dimethylamino)but-2-enoyl)piperidin-4-yl)-2-(phenylamino)pyrido[2,3-d]pyrimidin-7(8H)-one] | 1.1 | 1.1 | 5.1 | potent irreversible inhibitors |  |  |  | 
COc1cc(OC)c(Cl)c(-c2cc3cnc(Nc4ccc(F)cc4)nc3n(C3CCN(C(=O)/C=C/CN(C)C)CC3)c2=O)c1Cl [Compound 139, (E)-6-(2,6-dichloro-3,5-dimethoxyphenyl)-8-(1-(4-(dimethylamino)but-2-enoyl)piperidin-4-yl)-2-((4-fluorophenyl)amino)pyrido[2,3-d]pyrimidin-7(8H)-one] | 0.3 | 1.1 | 6 |  |  |  |  | 
COc1cccc(Nc2ncc3cc(-c4c(Cl)c(OC)cc(OC)c4Cl)c(=O)n(C4CCN(C(=O)/C=C/CN(C)C)CC4)c3n2)c1 [Compound 140, (E)-6-(2,6-dichloro-3,5-dimethoxyphenyl)-8-(1-(4-(dimethylamino)but-2-enoyl)piperidin-4-yl)-2-((3-methoxyphenyl)amino)pyrido[2,3-d]pyrimidin-7(8H)-one] | 0.7 | 0.9 | 4.9 |  |  |  |  | 
COc1cc(Nc2ncc3cc(-c4c(Cl)c(OC)cc(OC)c4Cl)c(=O)n(C4CCN(C(=O)/C=C/CN(C)C)CC4)c3n2)ccc1F [Compound 141, (E)-6-(2,6-dichloro-3,5-dimethoxyphenyl)-8-(1-(4-(dimethylamino)but-2-enoyl)piperidin-4-yl)-2-((4-fluoro-3-methoxyphenyl)amino)pyrido[2,3-d]pyrimidin-7(8H)-one] | 0.7 | 1.5 | 5.5 |  |  |  |  | 
CNc1ncc2cc(-c3c(Cl)c(OC)cc(OC)c3Cl)c(=O)n(Cc3cccc(NC(=O)/C=C/CN(C)C)c3)c2n1 [Compound 143, (E)-N-(3-((6-(2,6-dichloro-3,5-dimethoxyphenyl)-2-(methylamino)-7-oxopyrido[2,3-d]pyrimidin-8(7H)-yl)methyl)phenyl)-4-(dimethylamino)but-2-enamide] | 0.8 | 0.9 | 8 |  |  |  |  | 
CCNc1ncc2cc(-c3c(Cl)c(OC)cc(OC)c3Cl)c(=O)n(Cc3cccc(NC(=O)/C=C/CN(C)C)c3)c2n1 [Compound 144, (E)-N-(3-((6-(2,6-dichloro-3,5-dimethoxyphenyl)-2-(ethylamino)-7-oxopyrido[2,3-d]pyrimidin-8(7H)-yl)methyl)phenyl)-4-(dimethylamino)but-2-enamide] | 0.9 | 1.6 | 6.7 |  |  |  |  | 
COc1cc(OC)c(Cl)c(-c2cc3cnc(NC(C)C)nc3n(Cc3cccc(NC(=O)/C=C/CN(C)C)c3)c2=O)c1Cl [Compound 145, (E)-N-(3-((6-(2,6-dichloro-3,5-dimethoxyphenyl)-2-(isopropylamino)-7-oxopyrido[2,3-d]pyrimidin-8(7H)-yl)methyl)phenyl)-4-(dimethylamino)but-2-enamide] | 1.3 | 2.5 | 6.9 |  |  |  |  | 
CNc1ncc2cc(-c3c(Cl)c(OC)cc(OC)c3Cl)c(=O)n(C(C)c3cccc(NC(=O)/C=C/CN(C)C)c3)c2n1 (centres unmarked) [Compound 146, (E)-N-(3-(1-(6-(2,6-dichloro-3,5-dimethoxyphenyl)-2-(methylamino)-7-oxopyrido[2,3-d]pyrimidin-8(7H)-yl)ethyl)phenyl)-4-(dimethylamino)but-2-enamide] | 1.2 | 1.2 | 6.2 |  |  |  |  | 
C=CC(=O)N1CCC(N2C(=O)N(c3c(Cl)c(OC)cc(OC)c3Cl)Cc3cnc(NC)nc32)CC1 [Compound 156, 1-(1-acryloylpiperidin-4-yl)-3-(2,6-dichloro-3,5-dimethoxyphenyl)-7-(methylamino)-3,4-dihydropyrimido[4,5-d]pyrimidin-2(1H)-one] |  |  |  |  | potent reversible inhibitors |  |  | 
COc1ccc(Nc2ncc3c(n2)N(C2CCN(C(=O)/C=C/C[N+](C)(C)Cc4c([N+](=O)[O-])ncn4C)CC2)C(=O)N(c2c(Cl)c(OC)cc(OC)c2Cl)C3)cc1.[Br-] [Compound 206, (E)-4-(4-(3-(2,6-dichloro-3,5-dimethoxyphenyl)-7-((4-methoxyphenyl)amino)-2-oxo-3,4-dihydropyrimido[4,5-d]pyrimidin-1(2H)-yl)piperidin-1-yl)-N,N-dimethyl-N-((1-methyl-4-nitro-1H-imidazol-5-yl)methyl)-4-oxobut-2-en-1-aminium bromide] |  |  |  |  |  | 8 | 1 | 8
COc1cc(OC)c(Br)c(N2Cc3cnc(NC(C)C)nc3N(C3CCN(C(=O)/C=C/C[N+](C)(C)Cc4c([N+](=O)[O-])ncn4C)CC3)C2=O)c1Br.[Br-] [Compound 207, (E)-4-(4-(3-(2,6-dibromo-3,5-dimethoxyphenyl)-7-(isopropylamino)-2-oxo-3,4-dihydropyrimido[4,5-d]pyrimidin-1(2H)-yl)piperidin-1-yl)-N,N-dimethyl-N-((1-methyl-4-nitro-1H-imidazol-5-yl)methyl)-4-oxobut-2-en-1-aminium bromide] |  |  |  |  |  | 53 | 8 | 404
COc1cc(OC)c(Br)c(-c2cc3cnc(NC(C)C)nc3n(C3CCN(C(=O)/C=C/C[N+](C)(C)Cc4c([N+](=O)[O-])ncn4C)CC3)c2=O)c1Br.[Br-] [Compound 210, (E)-4-(4-(6-(2,6-dibromo-3,5-dimethoxyphenyl)-2-(isopropylamino)-7-oxopyrido[2,3-d]pyrimidin-8(7H)-yl)piperidin-1-yl)-N,N-dimethyl-N-((1-methyl-4-nitro-1H-imidazol-5-yl)methyl)-4-oxobut-2-en-1-aminium bromide] |  |  |  |  |  | 9 | 4 | 35
COc1cc(OC)c(Br)c(-c2cc3cnc(Nc4ccccc4)nc3n(C3CCN(C(=O)/C=C/C[N+](C)(C)Cc4c([N+](=O)[O-])ncn4C)CC3)c2=O)c1Br.[Br-] [Compound 212, (E)-4-(4-(6-(2,6-dibromo-3,5-dimethoxyphenyl)-7-oxo-2-(phenylamino)pyrido[2,3-d]pyrimidin-8(7H)-yl)piperidin-1-yl)-N,N-dimethyl-N-((1-methyl-4-nitro-1H-imidazol-5-yl)methyl)-4-oxobut-2-en-1-aminium bromide] |  |  |  |  |  | 8 | 2 | 13

Reference: US11192890B2, “FGFR kinase inhibitors and pharmaceutical uses” (AUCKLAND UNISERVICES LIMITED, priority 2017, dated 2021)
